Counter-ions that a name gives are not always drawn.

As usually defined, the IC50 is the midpoint of a concentration-inhibition curve.

Assay [1] deals with Recombinant human MALT-1 (amino acids 340-824) (Homo sapiens (Human), UniProt Q9UDY8). The assay is described as follows: MALT-1 inhibition assay (fluorogenic substrate Ac-LRSR-Rh110-DP). The format is biochemical. Conditions: recombinant human MALT-1, substrate Ac-LRSR-Rh110-DP. In a few lines:
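MALT-1 at 3 nM final was reacted with 10 μM Ac-LRSR-Rh110-DP, with substrate addition starting the reaction. Incubation ran 60 minutes at 25° C in the dark. Percent inhibition from fluorescence across doses was fitted to a 4-parameter logistic to give IC50.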

For assay [2], the system named is IL-2 secretion by human effector memory T cells (TEM). The assay is described as follows: Effector memory T cells IL-2 release assay. The conditions noted are these: T-cell; human CD4+ effector memory T cells, CD3/CD28 bead stimulation, 24 h; read-out: CD4TC IL2 IC50. Type of assay: cell-based. In a few lines:
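Human CD4+ effector memory T cells from healthy-donor buffy coats were stimulated with anti-CD3/CD28 Dynabeads and exposed to 10 semi-log compound doses (0.1% DMSO) for 24 h at 37 °C. Supernatant IL-2 was measured by HTRF, and IC50 came from a 4-parameter logistic fit to maximal IL-2. Viability was checked by flow cytometry.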

Chain of Recombinant human MALT-1 (amino acids 340-824) (Q9UDY8 340-824): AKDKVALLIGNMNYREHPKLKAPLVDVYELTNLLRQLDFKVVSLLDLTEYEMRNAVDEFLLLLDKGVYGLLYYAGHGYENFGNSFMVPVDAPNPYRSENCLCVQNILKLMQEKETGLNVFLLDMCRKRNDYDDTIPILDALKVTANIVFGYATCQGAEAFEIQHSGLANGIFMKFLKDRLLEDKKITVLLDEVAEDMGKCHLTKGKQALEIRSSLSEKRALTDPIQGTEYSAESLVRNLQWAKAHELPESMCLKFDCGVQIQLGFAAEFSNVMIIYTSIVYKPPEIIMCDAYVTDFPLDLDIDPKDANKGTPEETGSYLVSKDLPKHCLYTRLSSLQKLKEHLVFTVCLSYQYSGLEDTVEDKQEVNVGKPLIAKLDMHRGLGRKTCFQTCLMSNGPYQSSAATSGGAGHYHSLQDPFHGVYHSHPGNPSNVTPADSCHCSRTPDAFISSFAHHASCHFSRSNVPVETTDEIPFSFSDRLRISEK

In the case of `CNCC(=O)N1CC[C@H](C(=O)N(C)[C@@H](c2ccc(N3CCCc4c3cnc3cc(Cl)nn43)cc2)C(F)(F)F)C1` (relative stereo) [CPD0075880, (3 rel-R)—N-[(1S)-1-[4-(4-chloro-2,3,7,10-tetrazatricyclo[7.4.0.0^2,6]trideca-1(9),3,5,7-tetraen-10-yl)phenyl]-2,2,2-trifluoro-ethyl]-N-methyl-1-[2-(methylamino)acetyl]pyrrolidine-3-carboxamide hydrochloride], the figures for the IC50 in assay [1] and in assay [2] were 99 nM and 363 nM, respectively.

`CC1CCN(c2ccc([C@H](N(C)C(=O)[C@H]3CC[S@](=N)(=O)CC3)C(F)(F)F)cc2)c2cnc3cc(Cl)nn3c21` (some centres unmarked) [CPD0072813]: the IC50 in assay [1] amounted to 27 nM; in assay [2] it was 61 nM.

For the compound `CN(C(=O)[C@H]1CCC(=O)NC1)[C@@H](c1ccc(N2CCCc3c2cnc2cc(Cl)nn32)cc1)C(F)(F)F` (relative stereo) [CPD0073569, (3rel-S)-N-[(1S)-1-(4-{4-chloro-2,3,7,10-tetraazatricyclo[7.4.0.0^2,6]trideca-1(9),3,5,7-tetraen-10-yl}phenyl)-2,2,2-trifluoroethyl]-N-methyl-6-oxopiperidine-3-carboxamide], the concentration for half-maximal inhibition (IC50) is 47 nM in assay [1] and 140 nM in assay [2].

As for `C[C@@H]1CCN(c2ccc([C@H](N(C)C(=O)[C@H]3CC[S@@](=N)(=O)CC3)C(F)(F)F)cc2)c2cnc3cc(Cl)nn3c21` (relative stereo) [CPD0073192, (1rel-s,4rel-s)-N-[(1S)-1-{4-[(13rel-R)-4-chloro-13-methyl-2,3,7,10-tetraazatricyclo[7.4.0.0^2,6]trideca-1(9),3,5,7-tetraen-10-yl]phenyl}-2,2,2-trifluoroethyl]-1-imino-N-methyl-1-oxo-1λ^6-thiane-4-carboxamide], the IC50 came to 25 nM in assay [1] and 80 nM in assay [2].

Turning to `CN=[S@]1(=O)CC[C@@H](C(=O)N(C)[C@@H](c2ccc(N3CCCc4c3cnc3cc(Cl)nn43)cc2)C(F)(F)F)CC1` (relative stereo) [CPD0072530, (1rel-S,4rel-S)—N-[(1S)-1-(4-{4-chloro-2,3,7,10-tetraazatricyclo[7.4.0.0^2,6]trideca-1(9),3,5,7-tetraen-10-yl}phenyl)-2,2,2-trifluoroethyl]-N-methyl-1-(methylimino)-1-oxo-1λ^e-thiane-4-carboxamide], the IC50 in assay [1] is 59 nM; in assay [2], 127 nM.

`COc1cncc2c1CCCN2c1ccc(C(N(C)C(=O)C2CCS(=O)(=O)CC2)C(F)(F)F)cc1` (stereo in doubt) [CPD0021939, N-methyl-1,1-dioxo-N-[(1S)-2,2,2-trifluoro-1-[4-(5-methoxy-3,4-dihydro-2H-1,7-naphthyridin-1-yl)phenyl]ethyl]thiane-4-carboxamide]: the values for the IC50 in assay [1] and in assay [2] were 271 nM and 894 nM, respectively.

On to `Cc1cn2ncc(Nc3ccc([C@H](N(C)C(=O)C4CCS(=O)(=O)CC4)C(F)(F)F)cc3)cc2n1` [CPD0018617, N-methyl-1,1-dioxo-N-[(1S)-2,2,2-trifluoro-1-[4-({2-methylimidazo[1,2-b]pyridazin-7-yl}amino)phenyl]ethyl]-1λ^6-thiane-4-carboxamide], for which the results for the half-inhibitory concentration (IC50) in assay [1] and in assay [2] were 598 nM and 386 nM, respectively.

As for `COCC(=O)N1CC[C@@H](C(=O)N(C)[C@@H](c2ccc(N3CCCc4c3cnc3cc(Cl)nn43)cc2)C(F)(F)F)C1` (relative stereo) [CPD0075875, (3rel-S)-N-[(1S)-1-[4-(4-chloro-2,3,7,10-tetrazatricyclo[7.4.0.0^2,6]trideca-1(9),3,5,7-tetraen-10-yl)phenyl]-2,2,2-trifluoro-ethyl]-1-(2-methoxyacetyl)-N-methyl-pyrrolidine-3-carboxamide], the 50% inhibitory concentration (IC50) is 85 nM in assay [1] and 116 nM in assay [2].

For the compound `CN(C(=O)[C@H]1CC[S@@](=N)(=O)CC1)[C@@H](c1ccc(N2CCC3(CC3)c3c2cnc2cc(Cl)nn32)cc1)C(F)(F)F` [CPD0072772, (1rel-s,4rel-s)-N-[(1S)-1-(4-{4′-chloro-2′,3′,7′, 10′-tetraazaspiro[cyclopropane-1,13′-tricyclo[7.4.0.0^2,6]tridecane]-1′(9′),3′,5′,7′-tetraen-10′-yl}phenyl)-2,2,2-trifluoroethyl]-1-imino-N-methyl-1-oxo-1λ^6-thiane-4-carboxamide], the IC50 in assay [1] and in assay [2] was 27 nM in each case.

As for `COc1ccc2ncc(Nc3ccc([C@H](N(C)C(=O)C4CCS(=O)(=O)CC4)C(F)(F)F)cc3)cc2n1` [CPD0018619, N-methyl-1,1-dioxo-N-[(1S)-2,2,2-trifluoro-1-[4-[(6-methoxy-1,5-naphthyridin-3-yl)amino]phenyl]ethyl]thiane-4-carboxamide], the IC50 stood at 361 nM in assay [1] and 190 nM in assay [2].

As to `O=C(N[C@@H](c1ccc(N2CCCc3c2cnc2cc(Cl)nn32)cc1)C(F)(F)F)C1CCS(=O)(=O)CC1` [CPD0021755, N-[(1S)-1-(4-{4-chloro-2,3,7,10-tetraazatricyclo[7.4.0.0^2,6]trideca-1(9),3,5,7-tetraen-10-yl}phenyl)-2,2,2-trifluoroethyl]-1,1-dioxo-1λ^e-thiane-4-carboxamide], the results for the IC50 in assay [1] and in assay [2] were 433 nM and 845 nM, respectively.

Take `CN(C(=O)C1CCS(=O)(=O)CC1)[C@@H](c1ccc(N2CCCc3c2cnc2cc(F)nn32)nc1)C(F)(F)F` [CPD0021665, N-methyl-1,1-dioxo-N-[(1S)-2,2,2-trifluoro-1-(6-{4-fluoro-2,3,7,10-tetraazatricyclo[7.4.0.0^2,6]trideca-1(9),3,5,7-tetraen-10-yl}pyridin-3-yl)ethyl]-1λ^6-thiane-4-carboxamide]: the IC50 in assay [1] was found to be 638 nM; in assay [2] it was 2100 nM.

For `CN(C(=O)[C@@H]1COC(=O)N1C)[C@@H](c1ccc(N2CCCc3c2cnc2cc(Cl)nn32)cc1)C(F)(F)F` (relative stereo) [CPD0073571, (4rel-S)-N-[(1S)-1-(4-{4-chloro-2,3,7,10-tetraazatricyclo[7.4.0.0^2,6]trideca-1(9),3,5,7-tetraen-10-yl}phenyl)-2,2,2-trifluoroethyl]-N,3-dimethyl-2-oxo-1,3-oxazolidine-4-carboxamide], the IC50 in assay [1] stood at 52 nM; in assay [2], 153 nM.

As for `CN(C(=O)[C@H]1CC12CCS(=O)(=O)CC2)[C@@H](c1ccc(N2CCCc3c2cnc2cc(Cl)nn32)cc1)C(F)(F)F` (relative stereo) [CPD0073922, (1rel-S)-N-[(1S)-1-(4-{4-chloro-2,3,7,10-tetraazatricyclo[7.4.0.0^2,6]trideca-1(9),3,5,7-tetraen-10-yl}phenyl)-2,2,2-trifluoroethyl]-N-methyl-6,6-dioxo-6λ^6-thiaspiro[2.5]octane-1-carboxamide], the IC50 in assay [1] amounted to 173 nM; in assay [2], 994 nM.

For `CO[C@H](C)c1c(Nc2ccc([C@H](N(C)C(=O)C3CCS(=O)(=O)CC3)C(F)(F)F)cc2)cnn2cc(Cl)nc12` [CPD0072850], the IC50 in assay [1] was 43 nM; in assay [2] it was 114 nM.

Turning to `CN(C(=O)Cc1ccccc1O)[C@@H](c1ccc(N2CCCc3c2cnc2cc(Cl)nn32)cc1)C(F)(F)F` [CPD0019350, N-[(1S)-1-(4-{4-chloro-2,3,7,10-tetraazatricyclo[7.4.0.0^2,6]trideca-1(9),3,5,7-tetraen-10-yl}phenyl)-2,2,2-trifluoroethyl]-2-(2-hydroxyphenyl)-N-methylacetamide], the IC50 in assay [1] stood at 70 nM; in assay [2], 103 nM.

The values above are taken from patent US20250051327A1, “MALT-1 MODULATORS” (EXSCIENTIA AI LIMITED, priority 2020, published 2025).
